Measurements taken from US8148424B2, “Tocopherols, tocotrienols, other chroman and side chain derivatives and uses thereof” (Research Development Foundation, priority 1998, dated 2012).
Converted amounts (≈) assume the structure as drawn.

Experiments:
ME-180 = assay: Bioassay for apoptosis (apoptotic EC50); type: cell-based, human; settings: for apoptotic EC50: ME-180, unit not given, in µg/mL; for EC50: Homo sapiens, ME-180, ME-180, unit inferred
Protocol: (§1) Cells were cultured at 1.5×10^5 cells/well in 12 well plates. Cells were allowed to adhere overnight, then incubated with novel test compounds at 0.01, 0.1, 1, 5, 10 & 20 μg/mL for 1, 2 and 3 days. After treatment, cells (floating+trypsin released adherent cells) were pelleted, washed and stained with 2 μg/ml DAPI (4′,6-diamidine-2′-phenylindole dihydrochloride) in 100% methanol for 15 minutes at 37° C. and/or 3′-OH ends resulting from DNA fragmentation were detected with the TUNEL (terminal deoxynucleotidyl transferase-mediated dUTP-X 3′ nick end-labeling) technique, and then viewed using a Zeiss ICM 405 microscope. Cells whose nucleus contained clearly condensed or fragmented chromatin or stained for fragmented DNA in the TUNEL assay were scored as apoptotic. Data are presented as percent cells undergoing apoptosis.

[1] = tested on: human cancer cells from a wide variety of cell lineages; assay: Apoptosis induction in a battery of tumor cells; type: cell-based; settings: breast, prostate, leukemia/lymphoid, cervical, ovarian, endometrial, colon, lung cell lines
Protocol: as §1

RL-95-2 = assay: Bioassay for apoptosis (apoptotic EC50); type: cell-based, human; settings: for EC50: Homo sapiens, RL95-2, RL-95-2, unit inferred
Protocol: as §1

MDA-MB-435 = assay: Bioassay for apoptosis (apoptotic EC50); type: cell-based, human; settings: for EC50: Homo sapiens, MDA-MB-435, MDA-MB-435, unit inferred, read-out: apoptotic EC50; for apoptotic EC50: MDA-MB-435, unit not given
Protocol: as §1

C-170 = assay: Bioassay for apoptosis (apoptotic EC50); type: cell-based, human; settings: for EC50: Homo sapiens, C170, C-170, unit inferred; for apoptotic EC50: C-170, unit not given, in µg/mL
Protocol: as §1

MCF-7 = assay: Bioassay for apoptosis (apoptotic EC50); type: cell-based, human; settings: for EC50: Homo sapiens, MCF7, MCF-7, unit inferred; for apoptotic EC50: MCF-7, unit not given, in µg/mL
Protocol: as §1

MDA-MB-231 = assay: Bioassay for apoptosis (apoptotic EC50); type: cell-based, human; settings: for EC50: Homo sapiens, MDA-MB-231, MDA-MB-231, unit inferred; for apoptotic EC50: MDA-MB-231, unit not given, in µg/mL
Protocol: as §1

PC-3 = assay: Bioassay for apoptosis (apoptotic EC50); type: cell-based, human; settings: PC-3; unit not given; in µg/mL
Protocol: as §1

LnCaP = assay: Bioassay for apoptosis (apoptotic EC50); type: cell-based, human; settings: for apoptotic EC50: unit not given, in µg/mL; for EC50: Homo sapiens, unit inferred
Protocol: as §1

HL-60 = assay: Bioassay for apoptosis (apoptotic EC50); type: cell-based, human; settings: for apoptotic EC50: HL-60, unit not given, in µg/mL
Protocol: as §1

[2] = tested on: HT-29 Human Colon Cancer Cells Transplanted into Nude Mice; assay: Preclinical chemotherapeutic xenograft study; type: in vivo; settings: for Mean tumor Weights (mg) Following Treatments / Percent mean tumor weight gain (mg) following treatments: positive control 30 mg/kg daily for 5 days
Protocol: (§2) For the preclinical chemotherapeutic studies, in the absence of an maximum tolerated dose, the mice are supplemented with 30 and 20 mgs/0.1 ml by gavage daily for 21 days. Compound 1 is dissolved in 100% ethanol at 2 grams of compound 1/5 mls of ethanol, and diluted in peanut oil (nonsupplemented vitamin E) to yield 30 and 20 mgs of compound 1 per 0.1 ml. Vehicle control consisted of a mixture of ethanol and peanut oil equivalents. The preclinical chemotherapeutic studies are conducted with compound 1, utilizing human MDA-MB-435 human breast cancer cells, human DU-145 prostate cancer cells, and human HT-20 colon tumor cells transplanted into Balb/c immune compromised nude mice.
(§3) A total of 40 immune compromised nude mice are utilized for testing each test compound (two treatment groups at 20 and 30 mg/day) in each tumor cell type. […] Tumor cells are transplanted subcutaneously into the left flank and permitted to grow to approximately 70 mg in size, test compound treatments by daily gavage are initiated, and continue for a total of 21 days. Mice are monitored daily for tumor size by caliper measurements. Mice are treated for 21 days; however, the mice are sacrificed when the tumors of the vehicle control reached 500 mg in weight. At the completion of the protocol, tumors are excised and tumor size established by weight. At the time of sacrifice, serum, tumor, and heart muscle are taken from animals in the two compound 1 test groups in order to establish levels of compound 1 via HPLC analyses (data not included). The chemotherapeutic effectiveness of compound 1 administered daily at 30 and 20 mgs/day is determined by comparing the tumor size of the two treatment groups with the vehicle control group for each of the three tumor types, and by comparing the size of the tumor in the two treatment groups with the tumor group from the positive control. Treatment is for 21 days, experiments are continued until mean weight of tumor for vehicle control reaches 500 mgs.

MCF-10A = assay: Bioassay for apoptosis (apoptotic EC50); type: cell-based; settings: Homo sapiens, unit inferred
Protocol: as §1

HMEC = assay: Bioassay for apoptosis (apoptotic EC50); type: cell-based; settings: Homo sapiens, unit inferred
Protocol: as §1

[3] = tested on: DU-145 Human Prostate Cancer Cells Transplanted into Nude Mice; assay: Preclinical chemotherapeutic xenograft study; type: in vivo; settings: for Mean tumor Weights (mg) Following Treatments / Percent mean tumor weight gain (mg) following treatments: positive control 1 mg/kg i.v. daily for 5 days
Protocol: as §2, §3

[4] = tested on: MDA-MB-435 Human Breast Cancer Cells Transplanted into Nude Mice; assay: Preclinical chemotherapeutic xenograft study; type: in vivo; settings: for Percent mean tumor weight gain (mg) following treatments / Mean tumor Weights (mg) Following Treatments: positive control 20 mg/kg i.p. daily for 5 days
Protocol: as §2, §3

In the case of “2-(2,5,7,8-tetramethyl-(2R-(4R,8,12-trimethyltridecyl)chroman-6-yloxy)triethylammonium sulfate [Compound 21]”, the “apoptotic EC50” value (ME-180) is reported as 1-5 and the “growth inhibitory (apoptotic inducing) properties specific for human cancer cells” value (from here on “growth inhibitory”) [1] is reported as “effective”.
With Cc1c(C)c2c(c(C)c1OCC(=O)O)CCC(C)(CCCC(C)CCCC(C)CCCC(C)C)O2 (racemic) [Compound 15, 2,5,7,8-tetramethyl-(2RS-(4RS,8RS,12-trimethyltridcyl)chroman-6-yloxy)acetic acid] the EC50 (RL-95-2) was over 20 µg/mL, the EC50 (MDA-MB-435) was 20 to 30 µg/mL (≈ 40.9 to 61.4 µM) and the EC50 (C-170) was over 20 µg/mL. It also gave an EC50 (MCF-7) of 20 to 30 µg/mL (≈ 40.9 to 61.4 µM), an EC50 (MDA-MB-231) of 20 to 30 µg/mL (≈ 40.9 to 61.4 µM) and an EC50 (ME-180) of over 20 µg/mL. For the same molecule, the “growth inhibitory” value [1] was “effective”.
In the case of Cc1c(C)c2c(c(C)c1OCCC(=O)O)CC[C@@](C)(CCC[C@H](C)CCC[C@H](C)CCCC(C)C)O2 [Compound 2, 2,5,7,8-tetramethyl-(2R-(4R,8R,12-trimethyltridecyl)chroman-6-yloxy) propionic acid], the “apoptotic EC50” value (MDA-MB-435; in µg/mL) is reported as 10-20, the “apoptotic EC50” value (C-170) is reported as 10-20 and the “apoptotic EC50” value (MCF-7) is reported as 20-30. For the same molecule, the “apoptotic EC50” value (MDA-MB-231) was 10-20, the “apoptotic EC50” value (ME-180) was 5-10 and the “apoptotic EC50” value (PC-3) was 5-10. For the same molecule, the “apoptotic EC50” value (LnCaP) was 5-10, the “apoptotic EC50” value (HL-60) was 10-20 and the “growth inhibitory” value [1] was “effective”.
With Cc1c(C)c2c(c(C)c1OCCCC(=O)O)CC[C@@](C)(CCC[C@H](C)CCC[C@H](C)CCCC(C)C)O2 [Compound 3, 2,5,7,8-tetramethyl-(2R-(4R,8R,12-trimethyltridecyl)chroman-6-yloxy) butyric acid] the “apoptotic EC50” value (RL-95-2; RL-95-2, unit not given, in µg/mL) was 10-20, the “apoptotic EC50” value (MDA-MB-435; in µg/mL) was 5-10 and the “apoptotic EC50” value (C-170) was 10-20. For the same molecule, the “apoptotic EC50” value (MCF-7) was 20-30, the “apoptotic EC50” value (MDA-MB-231) was 5-10 and the “apoptotic EC50” value (ME-180) was 10-20. The “apoptotic EC50” value (PC-3) was 5-10, the “apoptotic EC50” value (LnCaP) was 5-10 and the “apoptotic EC50” value (HL-60) was 10-20. For the same molecule, the “growth inhibitory” value [1] was “effective”.
O=c1[nH]cc(F)c(=O)[nH]1 [Compound 5-FU, 5 Fluorouracil, reference compound] was tested, and the “Mean tumor Weights (mg) Following Treatments” value (shortened to “Mean tumor Weights”) ([2]; day 1) was 59.3 mg, the “Percent mean tumor weight gain (mg) following treatments” value (“Percent mean tumor weight gain” below) ([2]; day 1) was 100% and the “Mean tumor Weights” value ([2]; day 5) was 87.5 mg. For the same molecule, the “Percent mean tumor weight gain” value ([2]; day 5) was 147.6%, the “Mean tumor Weights” value ([2]; day 8) was 105.8 mg and the “Percent mean tumor weight gain” value ([2]; day 8) was 178.4%. For the same molecule, the “Mean tumor Weights” value ([2]; day 12) was 145.8 mg, the “Percent mean tumor weight gain” value ([2]; day 12) was 245.9% and the “Mean tumor Weights” value ([2]; day 15) was 141.6 mg. The “Percent mean tumor weight gain” value ([2]; day 15) was 247.2%, the “Mean tumor Weights” value ([2]; day 19) was 212.3 mg and the “Percent mean tumor weight gain” value ([2]; day 19) was 358.0%. For the same molecule, the “Mean tumor Weights” value ([2]; day 22) was 255.5 mg, the “Percent mean tumor weight gain” value ([2]; day 22) was 430.0% and the “reduction of mean tumor growth vs vehicle control” value (“reduction of mean tumor growth” below) ([2]; positive control, 30 mg/kg daily for 5 days) was 31.4%.
In the case of Cc1c(C)c2c(c(C)c1OCC(N)=O)CC[C@@](C)(CCC[C@H](C)CCC[C@H](C)CCCC(C)C)O2 [Compound 10, 2,5,7,8-tetramethyl-(2R-(4R,8R,12-trimethyltridecyl)chroman-6-yloxy)acetamide], the EC50 (RL-95-2) is reported as over 20 µg/mL, the EC50 (MDA-MB-435) is reported as over 20 µg/mL and the EC50 (C-170) is reported as over 20 µg/mL. The EC50 (MCF-7) was over 20 µg/mL, the EC50 (MDA-MB-231) was over 20 µg/mL and the EC50 (ME-180) was over 20 µg/mL. The EC50 (LnCaP) was over 20 µg/mL, the EC50 (HL-60; Homo sapiens, HL-60, HL-60, unit inferred) was over 20 µg/mL and the EC50 (MCF-10A) was over 20 µg/mL. For the same molecule, the EC50 (HMEC) was over 20 µg/mL.
For Cc1c(C)c2c(c(C)c1OCC(=O)O)CC[C@](C)(C(=O)O)O2 [Compound 16], the EC50 (MDA-MB-435) was over 20 µg/mL, the EC50 (MCF-7) was over 20 µg/mL and the EC50 (MDA-MB-231) was over 20 µg/mL.
C/C(=C\CSc1cc(C)c(OCC(=O)O)c(C)c1C)CCCC(C)CCCC(C)CCCC(C)C (stereo not drawn) [Compound 27, E.Z,RS,RS,RS-(phytyltrimethylbenzenethiol-6-yloxy)acetic acid] was tested, and the EC50 (MCF-7) was 10 to 20 µg/mL (≈ 19.8 to 39.6 µM), the EC50 (LnCaP) was 10 to 20 µg/mL (≈ 19.8 to 39.6 µM) and the “growth inhibitory” value [1] was “effective”.
Cc1c(C)c(OCC(=O)O)c(C)c2c1NC(C)(CCCC(C)CCCC(C)CCCC(C)C)CC2 (stereo not drawn) [Compound 39, 1-Aza-α-tocopherol-6-yloxyl-acetic acid] was tested, and the “apoptotic EC50” value (MDA-MB-435; in µg/mL) was 10-20 and the “growth inhibitory” value [1] was “effective”.
For Cc1c(C)c2c(c(C)c1N=Nc1ccc([N+](=O)[O-])cc1[N+](=O)[O-])CCC(C)(CCCC(C)CCCC(C)CCCC(C)C)N2 (stereo not drawn) [Compound 43], the “apoptotic EC50” value (MDA-MB-435) was “PPT”.
For O=C1c2c(O)ccc(O)c2C(=O)c2c(NCCNCCO)ccc(NCCNCCO)c21 [Mitoxantrone, reference compound], the “Mean tumor Weights” value ([3]; day 1) was 66.8 mg, the “Percent mean tumor weight gain” value ([3]; day 1) was 100% and the “Mean tumor Weights” value ([3]; day 5) was 107.2 mg. For the same molecule, the “Percent mean tumor weight gain” value ([3]; day 5) was 160.5%, the “Mean tumor Weights” value ([3]; day 8) was 141.1 mg and the “Percent mean tumor weight gain” value ([3]; day 8) was 211.2%. The “Mean tumor Weights” value ([3]; day 12) was 185.4 mg, the “Percent mean tumor weight gain” value ([3]; day 12) was 277.5% and the “Mean tumor Weights” value ([3]; day 15) was 205.2 mg. The “Percent mean tumor weight gain” value ([3]; day 15) was 307.2%, the “Mean tumor Weights” value ([3]; day 19) was 325.3 mg and the “Percent mean tumor weight gain” value ([3]; day 19) was 487.0%. For the same molecule, the “Mean tumor Weights” value ([3]; day 22) was 389.4 mg, the “Percent mean tumor weight gain” value ([3]; day 22) was 582.9% and the “reduction of mean tumor growth” value ([3]; positive control, 1 mg/kg daily intravenously for 5 days) was 27.9%.
With CC(=O)O[C@H]1C(=O)[C@@]2(C)[C@H]([C@H](OC(=O)c3ccccc3)[C@]3(O)C[C@H](OC(=O)[C@H](O)[C@@H](NC(=O)c4ccccc4)c4ccccc4)C(C)=C1C3(C)C)[C@]1(OC(C)=O)CO[C@@H]1C[C@@H]2O [Taxol, reference compound] the “Percent mean tumor weight gain” value ([4]; day 1) was 100%, the “Percent mean tumor weight gain” value ([4]; day 4) was 101.1% and the “Mean tumor Weights” value ([4]; day 7) was 38.2 mg. For the same molecule, the “Percent mean tumor weight gain” value ([4]; day 7) was −46.0%, the “Mean tumor Weights” value ([4]; day 10) was 11.7 mg and the “Percent mean tumor weight gain” value ([4]; day 10) was −83.7%. The “Mean tumor Weights” value ([4]; day 14) was 5.7 mg, the “Percent mean tumor weight gain” value ([4]; day 14) was −91.8% and the “Mean tumor Weights” value ([4]; day 17) was 3.6 mg. The “Percent mean tumor weight gain” value ([4]; day 17) was −99.5%, the “Mean tumor Weights” value ([4]; day 21) was 6.8 mg and the “Percent mean tumor weight gain” value ([4]; day 21) was −90.3%. The “reduction of mean tumor growth” value ([4]; positive control, 20 mg/kg intraperitoneally daily for 5 days) was 90.3%.
